From PMC9963675 (Proceedings of the National Academy of Sciences of the …, 2023)

Key:
WT C57Bl6/N mice = assay: open field locomotor activity time-course in mice; format: in vivo; conditions: for duration of locomotor / psychomotor effects: open field time-course, i.p.; for potency, cumulative distance traveled over 60 min post i.p. injection: compared with MPH, cocaine, R-αPVP, R-MDPV and R-pyrovalerone
DAT [1] = target: T1, DAT (Homo sapiens, UniProt Q01959); assay: saturation of [3H]DA uptake in presence of inhibitor; format: cell-based; conditions: 1 min uptake; cocaine and R-αPVP 250, 500, 1,000 nM; S-αPVP 5, 10, 20 nM
DAT [2] = target: T1, DAT; format: binding; conditions: DAT membranes
DAT [3] = target: T1, DAT; assay: electrophysiological examination of DAT-mediated currents; format: cell-based; conditions: HEK293 cells expressing DAT, whole-cell

T1 sequence (Q01959 whole entry): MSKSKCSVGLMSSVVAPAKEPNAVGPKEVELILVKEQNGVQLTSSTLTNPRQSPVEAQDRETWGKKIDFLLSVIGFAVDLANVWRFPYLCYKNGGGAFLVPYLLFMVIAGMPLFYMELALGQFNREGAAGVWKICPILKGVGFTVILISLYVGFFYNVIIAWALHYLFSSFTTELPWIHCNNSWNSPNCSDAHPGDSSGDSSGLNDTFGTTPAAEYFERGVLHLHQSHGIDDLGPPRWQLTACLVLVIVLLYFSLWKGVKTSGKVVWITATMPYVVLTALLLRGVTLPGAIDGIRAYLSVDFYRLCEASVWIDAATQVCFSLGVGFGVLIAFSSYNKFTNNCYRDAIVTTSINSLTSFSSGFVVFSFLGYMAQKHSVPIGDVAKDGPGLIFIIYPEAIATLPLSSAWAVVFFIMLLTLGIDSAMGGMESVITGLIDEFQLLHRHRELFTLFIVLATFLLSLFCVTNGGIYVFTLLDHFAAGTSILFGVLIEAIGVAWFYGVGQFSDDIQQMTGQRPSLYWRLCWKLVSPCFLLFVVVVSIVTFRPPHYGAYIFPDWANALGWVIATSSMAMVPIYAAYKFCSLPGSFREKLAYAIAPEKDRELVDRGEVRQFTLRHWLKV

Compound	duration of locomotor / psychomotor effects (WT C57Bl6/N mice)	further results
CCC[C@H](C(=O)c1ccc(C)cc1)N1CCCC1 [R-pyrovalerone, pyrovalerone]	much shorter duration of locomotor effects	–
COC(=O)[C@H]1[C@@H](OC(=O)c2ccccc2)C[C@@H]2CC[C@H]1N2C [cocaine]	much shorter duration of locomotor effects	effect on Km of DA uptake (DAT [1]): increases Km in dose-dependent manner; effect on Vmax of DA uptake (DAT [1]): does not decrease Vmax; effect on dissociation rate of [3H]WIN35428 (DAT [2]): not affected
NCCc1ccc(O)c(O)c1 [dopamine]	–	DAT-mediated inward currents (substrate activity) (DAT [3]): robust inward currents
CCCC(C(=O)c1ccc2c(c1)OCO2)N1CCCC1 (stereo not drawn) [S-MDPV, 3,4-methylenedioxypyrovalerone]	prolonged psychomotor effects	potency, cumulative distance traveled over 60 min post i.p. injection (WT C57Bl6/N mice): at least tenfold more potent
CCCC(C(=O)c1ccc2c(c1)OCO2)N1CCCC1 (stereo not drawn) [R-MDPV, 3,4-methylenedioxypyrovalerone]	much shorter duration of locomotor effects	–
CCC[C@@H](C(=O)c1ccc(C)cc1)N1CCCC1 [S-pyrovalerone, pyrovalerone]	prolonged psychomotor effects	potency, cumulative distance traveled over 60 min post i.p. injection (WT C57Bl6/N mice): at least tenfold more potent
COC(=O)C(c1ccccc1)C1CCCCN1 (stereo not drawn) [MPH, methylphenidate]	much shorter duration of locomotor effects	–
